Patent publication US6423689B1, “Peptidyl calcium channel blockers” (Warner-Lambert Company, priority 1997, dated 2002)

Target: T1, N-type Ca2+ channels in IMR-32 cells (Homo sapiens, UniProt Q00975)
T1 construct: host or cells: IMR-32 cells, differentiated with dibutyryl cAMP and bromodeoxyuridine
Test: Inhibition of N-type calcium flux in IMR-32 cells (Indo-1 fluorescence, nitrendipine present)
Type: cell-based
Description: Measurement of N-type Ca^2+ Channel Blocking Potencies of Compounds in IMR-32 Cells Using the Fluorescent Ca^2+ Indicator Indo-1
IMR-32 cells are a human tumoral cell line of neural origin. […] Calcium flux into these cells may be induced by stimulation with elevated potassium concentrations. The L-channel component of calcium flux may be blocked by adding 5 μM nitrendipine. The remaining component of calcium entry into the IMR-32 cells is due to calcium flux through N-type calcium channels. Intracellular calcium concentrations are measured using the fluorescent calcium indicator Indo 1. The effect of drug concentration on calcium uptake is studied.
The IMR-32 cell line was obtained from the American Type Culture Collection (Rockville, Md.). Cells were grown in Eagle's Minimum Essential Medium with Eagle's salts supplemented with 10% fetal bovine serum, 2 mM L-Gln and antibiotic/antimycotic mixture (Gibco). […] After 7 to 13 days of differentiation, cells were detached using 0.5 mM EDTA and loaded with 5 μM Indo-1 acetoxymethyl ester (Molecular Probes, Eugene, OR) at […] for 45 minutes. Loaded cells were washed twice, resuspended (˜10^7 cells/mL) in assay buffer (10 mM HEPES/Tris pH 7.4 in Hank's Balanced Salt Solution without bicarbonate or phenol red containing 0.5% bovine serum albumin) and kept on ice until use. Fluorescence measurements were carried out in a Photon Technology International (PTI, South Brunswick, N.J.) Model RF-F3004 spectrofluorometer with dual emission monochromators using excitation at 350 nm and emission at 400 and 490 nm. The instrument was equipped with a thermostated cuvette holder with stirring capabilities as well as with a computer-controlled pump which allowed for reagent addition during measurement. Instrument control and data collection was done by PTI's OSCAR software running on an IBM compatible computer. […] Samples were incubated for 10 minutes at 30° C. and then aliquoted into three 10×10 mm disposable acrylic cuvettes. Emission signals at 400 and 490 nm were acquired from each cuvette at 30° C. for 50 seconds. At 20 seconds after the start of reading, cells were depolarized by the addition of 160 μL of stimulation solution (1M KCl, 68 mM CaCl2) to the cuvette via the computer-controlled pump. Ratio of dual emission signals (400 nm/490 nm), which is proportional to intracellular Ca^2+ concentration, was plotted against time, and the difference between maximal response after stimulation and basal value (before stimulation) was determined. Values obtained in this way were plotted as a function of drug concentration. IC50 values of test compounds were calculated by fitting a four-parameter logistic function to the data using the least squares method.

T1 sequence (Q00975 whole entry): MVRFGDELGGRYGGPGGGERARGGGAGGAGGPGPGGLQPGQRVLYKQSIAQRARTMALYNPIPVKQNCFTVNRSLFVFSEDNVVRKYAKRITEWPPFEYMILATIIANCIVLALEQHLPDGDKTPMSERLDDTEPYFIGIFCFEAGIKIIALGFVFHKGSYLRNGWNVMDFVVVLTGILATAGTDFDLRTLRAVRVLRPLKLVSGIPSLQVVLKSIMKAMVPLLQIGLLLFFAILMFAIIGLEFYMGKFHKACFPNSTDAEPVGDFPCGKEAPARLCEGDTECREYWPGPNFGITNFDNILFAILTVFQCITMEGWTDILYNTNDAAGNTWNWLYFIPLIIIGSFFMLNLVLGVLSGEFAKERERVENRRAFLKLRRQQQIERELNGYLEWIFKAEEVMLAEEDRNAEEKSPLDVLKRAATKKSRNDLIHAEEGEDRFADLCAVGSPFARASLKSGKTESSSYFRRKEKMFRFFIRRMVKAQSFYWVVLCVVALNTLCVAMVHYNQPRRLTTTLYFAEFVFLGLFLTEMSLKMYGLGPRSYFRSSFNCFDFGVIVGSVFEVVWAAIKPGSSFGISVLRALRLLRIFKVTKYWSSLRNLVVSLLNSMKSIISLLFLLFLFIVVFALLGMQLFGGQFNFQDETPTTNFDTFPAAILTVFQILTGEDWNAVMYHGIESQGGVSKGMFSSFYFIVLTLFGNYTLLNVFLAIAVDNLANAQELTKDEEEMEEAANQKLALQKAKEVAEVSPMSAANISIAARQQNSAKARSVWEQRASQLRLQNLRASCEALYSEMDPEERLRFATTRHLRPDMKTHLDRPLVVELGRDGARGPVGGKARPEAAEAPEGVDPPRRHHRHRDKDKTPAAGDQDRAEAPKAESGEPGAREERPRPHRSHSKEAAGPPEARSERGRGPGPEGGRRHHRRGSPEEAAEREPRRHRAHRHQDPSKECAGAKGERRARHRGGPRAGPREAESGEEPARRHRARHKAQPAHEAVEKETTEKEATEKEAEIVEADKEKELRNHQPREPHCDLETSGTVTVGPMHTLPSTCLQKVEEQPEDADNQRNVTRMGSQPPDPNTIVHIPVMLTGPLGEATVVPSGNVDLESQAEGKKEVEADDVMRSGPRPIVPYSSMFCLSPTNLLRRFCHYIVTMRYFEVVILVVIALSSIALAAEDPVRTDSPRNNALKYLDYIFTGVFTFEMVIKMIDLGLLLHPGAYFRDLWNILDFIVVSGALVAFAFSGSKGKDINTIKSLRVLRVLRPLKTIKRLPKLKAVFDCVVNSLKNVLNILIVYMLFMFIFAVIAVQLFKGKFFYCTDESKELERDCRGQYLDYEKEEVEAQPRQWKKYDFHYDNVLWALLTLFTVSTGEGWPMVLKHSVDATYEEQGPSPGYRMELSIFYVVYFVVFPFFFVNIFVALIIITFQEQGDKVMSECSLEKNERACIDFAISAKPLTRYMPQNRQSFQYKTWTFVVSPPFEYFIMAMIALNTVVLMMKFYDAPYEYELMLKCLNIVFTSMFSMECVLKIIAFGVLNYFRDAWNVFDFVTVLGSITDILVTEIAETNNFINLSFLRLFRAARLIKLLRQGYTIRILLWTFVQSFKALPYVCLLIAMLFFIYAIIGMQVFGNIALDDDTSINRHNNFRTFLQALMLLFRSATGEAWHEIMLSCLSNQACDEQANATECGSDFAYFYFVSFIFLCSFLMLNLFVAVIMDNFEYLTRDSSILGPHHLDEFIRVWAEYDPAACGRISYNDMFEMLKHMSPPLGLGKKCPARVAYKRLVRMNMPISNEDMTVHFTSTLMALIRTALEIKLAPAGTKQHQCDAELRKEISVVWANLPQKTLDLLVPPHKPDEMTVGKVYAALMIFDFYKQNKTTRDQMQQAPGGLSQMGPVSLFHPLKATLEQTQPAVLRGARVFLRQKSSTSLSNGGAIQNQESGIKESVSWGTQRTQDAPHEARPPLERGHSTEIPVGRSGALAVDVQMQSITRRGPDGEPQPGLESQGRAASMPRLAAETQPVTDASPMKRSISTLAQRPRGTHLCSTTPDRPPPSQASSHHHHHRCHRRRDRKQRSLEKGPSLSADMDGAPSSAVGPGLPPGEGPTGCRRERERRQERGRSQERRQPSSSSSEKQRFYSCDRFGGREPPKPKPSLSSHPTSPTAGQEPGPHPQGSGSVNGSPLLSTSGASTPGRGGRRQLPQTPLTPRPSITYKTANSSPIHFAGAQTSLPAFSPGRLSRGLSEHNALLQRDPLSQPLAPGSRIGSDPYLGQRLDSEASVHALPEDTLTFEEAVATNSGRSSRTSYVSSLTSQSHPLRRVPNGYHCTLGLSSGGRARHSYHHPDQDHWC
T1 sequence (P54289 25-956 partner limits assumed): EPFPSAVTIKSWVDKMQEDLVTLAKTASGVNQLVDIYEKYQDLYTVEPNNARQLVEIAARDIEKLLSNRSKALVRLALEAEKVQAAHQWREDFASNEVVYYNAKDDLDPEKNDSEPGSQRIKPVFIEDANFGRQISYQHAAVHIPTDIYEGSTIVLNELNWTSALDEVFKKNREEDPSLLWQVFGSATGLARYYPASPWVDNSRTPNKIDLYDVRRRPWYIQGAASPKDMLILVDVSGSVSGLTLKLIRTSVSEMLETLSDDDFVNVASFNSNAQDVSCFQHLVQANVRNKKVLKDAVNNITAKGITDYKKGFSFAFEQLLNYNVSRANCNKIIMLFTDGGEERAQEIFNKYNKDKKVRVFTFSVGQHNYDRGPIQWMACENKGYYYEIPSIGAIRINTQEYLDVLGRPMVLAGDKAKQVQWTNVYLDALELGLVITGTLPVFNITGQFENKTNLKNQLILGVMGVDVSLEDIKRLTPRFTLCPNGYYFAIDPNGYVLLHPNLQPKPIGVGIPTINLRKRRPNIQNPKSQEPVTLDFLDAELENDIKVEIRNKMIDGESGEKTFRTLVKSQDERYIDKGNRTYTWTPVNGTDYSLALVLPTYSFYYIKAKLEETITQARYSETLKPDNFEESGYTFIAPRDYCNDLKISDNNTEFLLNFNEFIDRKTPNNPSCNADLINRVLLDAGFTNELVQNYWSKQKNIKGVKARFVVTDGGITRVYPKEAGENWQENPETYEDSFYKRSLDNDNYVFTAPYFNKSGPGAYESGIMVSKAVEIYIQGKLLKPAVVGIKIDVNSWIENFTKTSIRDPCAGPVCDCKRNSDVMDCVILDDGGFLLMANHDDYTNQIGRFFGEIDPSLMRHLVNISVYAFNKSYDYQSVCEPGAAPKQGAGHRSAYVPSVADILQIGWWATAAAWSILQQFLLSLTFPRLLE
T1 sequence (P54289 957-1103 partner limits assumed): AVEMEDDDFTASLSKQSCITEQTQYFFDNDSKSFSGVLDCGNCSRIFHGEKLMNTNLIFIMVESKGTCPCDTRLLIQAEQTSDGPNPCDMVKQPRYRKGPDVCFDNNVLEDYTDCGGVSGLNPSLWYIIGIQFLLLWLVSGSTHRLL
T1 sequence (P54284 whole entry partner): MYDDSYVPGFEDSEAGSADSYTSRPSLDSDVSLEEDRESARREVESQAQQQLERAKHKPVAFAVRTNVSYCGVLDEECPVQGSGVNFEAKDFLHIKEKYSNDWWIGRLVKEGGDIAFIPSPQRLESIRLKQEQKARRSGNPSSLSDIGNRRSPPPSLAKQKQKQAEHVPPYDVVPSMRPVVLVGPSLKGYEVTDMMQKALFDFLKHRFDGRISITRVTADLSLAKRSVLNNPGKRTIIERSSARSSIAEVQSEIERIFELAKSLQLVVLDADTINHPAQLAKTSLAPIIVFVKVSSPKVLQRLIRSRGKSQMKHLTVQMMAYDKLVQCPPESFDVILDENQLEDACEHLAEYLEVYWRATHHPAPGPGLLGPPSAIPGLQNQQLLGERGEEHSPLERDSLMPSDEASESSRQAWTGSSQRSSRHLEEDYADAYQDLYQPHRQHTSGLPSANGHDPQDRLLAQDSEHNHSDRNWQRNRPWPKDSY

Row | Compound | Inhibition of Calcium Flux in IMR-32 Cells % Inhibition at 1 μM | Inhibition of Calcium Flux in IMR-32 Cells % Inhibition at 10 μM
1 | CC(C)C[C@H](NC(=O)N1CCCCCC1)C(=O)N[C@@H](Cc1ccc(OCc2ccccc2)cc1)C(=O)OCc1ccccc1 (relative stereo) [Example 14, [S-(R*,R*)]-2-{2-[(Azepane-1-carbonyl)-amino]-4-methyl-pentanoylamino}-3-(4-benzyloxy-phenyl)-propionic acid benzyl ester] | 45% | 
2 | COC(=O)[C@H](Cc1ccc(OC(C)(C)C)cc1)NC(=O)[C@H](CC(C)C)NC(=O)N1CCCCCC1 (relative stereo) [Example 22, [S-(R*,R*)]-2-{2-[(Azepane-1-carbonyl)-amino]-4-methyl-pentanoylamino}-3-(4-tert-butoxy-phenyl)-propionic acid methyl ester] | 29% | 
3 | CC(C)C[C@H](NC(=O)N1CCCCCC1)C(=O)N[C@@H](Cc1ccc(OCc2cccc(N)c2)cc1)C(=O)OC(C)(C)C (relative stereo) [Example 29, [S-(R*,R*)]-3-[4-(3-Amino-benzyloxy)-phenyl]-2-{2-[(azepane-1-carbonyl)-amino]-4-methyl-pentanoylamino}-propionic acid tert-butyl ester] | 43% | 87%
4 | CC(C)C[C@H](NC(=S)Nc1ccc(C(C)C)cc1)C(=O)N[C@@H](Cc1ccc(OCc2ccccc2)cc1)C(=O)OC(C)(C)C (relative stereo) [Example 43, [S-(R*,R*)]-3-(4-Benzyloxy-phenyl)-2-{2-[3-(4-isopropyl-phenyl)-thioureido]-4-methyl-pentanoylamino}-propionic acid, tert-butyl ester] | 17% | 38%
5 | CC(C)C[C@H](NC(=S)Nc1ccc(Br)cc1)C(=O)N[C@@H](Cc1ccc(OCc2ccccc2)cc1)C(=O)OC(C)(C)C (relative stereo) [Example 45, [S-(R*,R*)]-3-(4-Benzyloxy-phenyl)-2-{2-[3-(4-bromophenyl)-thioureido]-4-methyl-pentanoyl-amino}-propionic acid, tert-butyl ester] | 29% | 68%
6 | CC(C)C[C@H](NC(=S)NC12CC3CC(CC(C3)C1)C2)C(=O)N[C@@H](Cc1ccc(OCc2ccccc2)cc1)C(=O)OC(C)(C)C (relative stereo) [Example 46, [S-(R*,R*)]-3-(4-Benzyloxy-phenyl)-2-{2-[3-(1-adamantyl)-thioureido]-4-methylpentanoylamino}-propionic acid, tert-butyl ester] | 29% | 49%
7 | Cc1ccc(NC(=S)N[C@@H](CC(C)C)C(=O)N[C@@H](Cc2ccc(OCc3ccccc3)cc2)C(=O)OC(C)(C)C)cc1 (relative stereo) [Example 50, [S-(R*,R*)]-3-(4-Benzyloxy-phenyl)-2-[4-methyl-2-(3-p-tolyl-thioureido)-pentanoylamino]-propionic acid tert-butyl ester] | 53% | 85%
8 | CC(C)C[C@H](NC(=O)N1CCCCCC1)C(=O)N[C@@H](Cc1ccc(OCc2c(Cl)cccc2Cl)cc1)C(=O)NC(C)(C)C (relative stereo) [Example 52, [S-(R*,R*)]-Azepane-1-carboxylic acid (1-{1-tert-butylcarbamoyl-2-[4-(2,6-dichloro-benzyloxy)-phenyl]-ethylcarbamoyl}-3-methyl-butyl)-amide] | 56% | 76%
9 | CC(C)C[C@H](NC(=O)Nc1ccc([N+](=O)[O-])cc1)C(=O)N[C@@H](Cc1ccc(OCc2ccccc2)cc1)C(=O)OC(C)(C)C (relative stereo) [Example 55, [S-(R*,R*)]-3-(4-Benzyloxy-phenyl)-2-{4-methyl-2-[3-(4-nitro-phenyl)-ureido]pentanoylamino}-propionic acid tert-butyl ester] | 14% | 46%
10 | COc1cccc(NC(=O)N[C@@H](CC(C)C)C(=O)N[C@@H](Cc2ccc(OCc3ccccc3)cc2)C(=O)OC(C)(C)C)c1 (relative stereo) [Example 57, [S-(R*,R*)]-3-(4-Benzyloxy-phenyl)-2-{2-[3-(3-methoxy-phenyl)-ureido]-4-methyl-pentanoylamino}-propionic acid tert-butyl ester] | 34% | 74%
11 | Cc1cccc(C)c1NC(=O)N[C@@H](CC(C)C)C(=O)N[C@@H](Cc1ccc(OCc2ccccc2)cc1)C(=O)OC(C)(C)C (relative stereo) [Example 62, [S-(R*,R*)]-3-(4-Benzyloxy-phenyl)-2-{2-[3-(2,6-dimethyl-phenyl)-ureido]-4-methyl-pentanoylamino}-propionic acid tert-butyl ester] | 29% | 

Further lines, results first:

Row | Inhibition of Calcium Flux in IMR-32 Cells % Inhibition at 1 μM | Inhibition of Calcium Flux in IMR-32 Cells % Inhibition at 10 μM | Compound
12 | 29% | 78% | CC(C)C[C@H](NC(=O)N1CCOCC1)C(=O)N[C@@H](Cc1ccc(OCc2ccccc2)cc1)C(=O)OC(C)(C)C (relative stereo) [Example 34, [S-(R*,R*)]-3-(4-Benzyloxy-phenyl)-2(S)-{4-methyl-2(S)-[(morpholine-4-carbonyl)-amino]-pentanoylamino}-propionic acid tert-butyl ester]
13 | 32% | 85% | CNC(=S)N[C@@H](CC(C)C)C(=O)N[C@@H](Cc1ccc(OCc2ccccc2)cc1)C(=O)OC(C)(C)C (relative stereo) [Example 51, [S-(R*,R*)]-3-(4-Benzyloxy-phenyl)-2-[4-methyl-2-(3-methyl-thioureido)-pentanoylamino]-propionic acid tert-butyl ester]
14 | 44% | 63% | CC(C)C[C@H](NC(=O)Nc1ccccc1)C(=O)N[C@@H](Cc1ccc(OCc2ccccc2)cc1)C(=O)OC(C)(C)C (relative stereo) [Example 54, [S-(R*,R*)]-3-(4-Benzyloxy-phenyl)-2-[4-methyl-2-(3-phenyl-ureido)-pentanoylamino]propionic acid tert-butyl ester]
15 | 24% | 56% | CC(C)C[C@H](NC(=O)NC1CCCCC1)C(=O)N[C@@H](Cc1ccc(OCc2ccccc2)cc1)C(=O)OC(C)(C)C (relative stereo) [Example 56, [S-(R*,R*)]-3-(4-Benzyloxy-phenyl)-2-[2-(3-cyclohexyl-ureido)-4-methyl-pentanoylamino]propionic acid tert-butyl ester]
16 | 52% | 35% | Cc1ccc(NC(=O)N[C@@H](CC(C)C)C(=O)N[C@@H](Cc2ccc(OCc3ccccc3)cc2)C(=O)OC(C)(C)C)cc1 (relative stereo) [Example 58, [S-(R*,R*)]-3-(4-Benzyloxy-phenyl)-2-[4-methyl-2-(3-p-tolyl-ureido)-pentanoylamino]propionic acid tert-butyl ester]
17 | 41% | 61% | CCCCNC(=O)N[C@@H](CC(C)C)C(=O)N[C@@H](Cc1ccc(OCc2ccccc2)cc1)C(=O)OC(C)(C)C (relative stereo) [Example 59, [S-(R*,R*)]-3-(4-Benzyloxy-phenyl)-2-[2-(3-butyl-ureido)-4-methyl-pentanoylamino]-propionic acid tert-butyl ester]
18 | 24% |  | CC(C)C[C@H](NC(=O)NCc1ccccc1)C(=O)N[C@@H](Cc1ccc(OCc2ccccc2)cc1)C(=O)OC(C)(C)C (relative stereo) [Example 60, [S-(R*,R*)]-3-(4-Benzyloxy-phenyl)-2-[2-(3-benzyl-ureido)-4-methyl-pentanoylamino]-propionic acid tert-butyl ester]
19 | 34% |  | Cc1ccccc1NC(=O)N[C@@H](CC(C)C)C(=O)N[C@@H](Cc1ccc(OCc2ccccc2)cc1)C(=O)OC(C)(C)C (relative stereo) [Example 61, [S-(R*,R*)]-3-(4-Benzyloxy-phenyl)-2-[4-methyl-2-(3-o-tolyl-ureido)-pentanoylamino]-propionic acid tert-butyl ester]
